Experimental data taken from ChEMBL document CHEMBL1152560, “Substituted 2-arylbenzothiazoles as kinase inhibitors: hit-to-lead optimization” (Bioorg Med Chem, 2009).

Columns and labels:
[1] = test system: Epidermal growth factor receptor (Homo sapiens), P00533 [L858R,T790M]; experiment: Residual activity of EGFR T790M/L858R mutant at 0.1 uM by microplate scintillation counting
[2] = target: T1, Serine/threonine-protein kinase Nek1 (Homo sapiens) (UniProt Q96PY6); experiment: Residual activity of NEK1 at 1 uM by microplate scintillation counting
T1 sequence (whole entry): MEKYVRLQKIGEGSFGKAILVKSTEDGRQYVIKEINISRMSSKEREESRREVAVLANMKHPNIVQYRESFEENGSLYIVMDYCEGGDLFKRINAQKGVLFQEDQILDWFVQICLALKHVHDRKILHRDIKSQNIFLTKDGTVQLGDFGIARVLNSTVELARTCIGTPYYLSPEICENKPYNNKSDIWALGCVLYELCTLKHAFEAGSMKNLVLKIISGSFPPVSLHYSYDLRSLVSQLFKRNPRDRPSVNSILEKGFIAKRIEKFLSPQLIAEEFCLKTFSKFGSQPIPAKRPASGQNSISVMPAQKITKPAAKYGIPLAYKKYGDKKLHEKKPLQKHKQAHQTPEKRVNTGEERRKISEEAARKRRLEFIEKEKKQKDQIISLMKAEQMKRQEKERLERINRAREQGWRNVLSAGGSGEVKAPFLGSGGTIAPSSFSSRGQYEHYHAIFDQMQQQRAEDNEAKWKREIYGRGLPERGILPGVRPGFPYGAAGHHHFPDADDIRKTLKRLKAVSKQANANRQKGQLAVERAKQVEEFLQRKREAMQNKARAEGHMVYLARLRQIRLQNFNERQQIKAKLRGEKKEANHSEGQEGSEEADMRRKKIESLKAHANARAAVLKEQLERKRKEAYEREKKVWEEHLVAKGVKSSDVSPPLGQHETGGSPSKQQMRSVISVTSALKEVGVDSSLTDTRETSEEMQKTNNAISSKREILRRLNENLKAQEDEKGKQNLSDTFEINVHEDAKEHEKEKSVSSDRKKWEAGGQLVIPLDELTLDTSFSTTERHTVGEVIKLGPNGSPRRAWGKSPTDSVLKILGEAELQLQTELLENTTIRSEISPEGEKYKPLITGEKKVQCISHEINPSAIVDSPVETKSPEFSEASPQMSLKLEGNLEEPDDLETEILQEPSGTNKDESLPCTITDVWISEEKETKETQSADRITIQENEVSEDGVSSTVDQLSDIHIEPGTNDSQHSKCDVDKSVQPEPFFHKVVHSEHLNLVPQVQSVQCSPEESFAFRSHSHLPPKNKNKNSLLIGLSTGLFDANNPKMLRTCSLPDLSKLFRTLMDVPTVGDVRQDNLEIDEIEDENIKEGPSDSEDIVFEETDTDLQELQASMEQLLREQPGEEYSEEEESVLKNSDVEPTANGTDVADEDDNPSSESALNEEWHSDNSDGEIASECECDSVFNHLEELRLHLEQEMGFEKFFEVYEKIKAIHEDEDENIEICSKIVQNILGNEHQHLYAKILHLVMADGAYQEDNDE

[3] = target: Cyclin-dependent kinase 5/CDK5 activator 1 (Homo sapiens) (UniProt Q00535+Q15078); experiment: Residual activity of CDK5/p25NCK at 1 uM by microplate scintillation counting; assay type: protein-complex assay
Cyclin-dependent kinase 5/CDK5 activator 1 (Homo sapiens), sequence (Q00535 whole entry): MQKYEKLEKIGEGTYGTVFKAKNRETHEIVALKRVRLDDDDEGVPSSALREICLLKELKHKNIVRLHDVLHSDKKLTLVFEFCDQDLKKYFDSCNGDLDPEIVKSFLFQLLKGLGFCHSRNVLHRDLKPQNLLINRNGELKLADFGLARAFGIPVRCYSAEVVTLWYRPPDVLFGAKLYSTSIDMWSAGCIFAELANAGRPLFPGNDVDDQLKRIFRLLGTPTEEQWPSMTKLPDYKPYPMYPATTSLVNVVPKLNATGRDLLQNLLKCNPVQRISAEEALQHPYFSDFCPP
Cyclin-dependent kinase 5/CDK5 activator 1 (Homo sapiens), sequence (Q15078 99-307 partner limits assumed): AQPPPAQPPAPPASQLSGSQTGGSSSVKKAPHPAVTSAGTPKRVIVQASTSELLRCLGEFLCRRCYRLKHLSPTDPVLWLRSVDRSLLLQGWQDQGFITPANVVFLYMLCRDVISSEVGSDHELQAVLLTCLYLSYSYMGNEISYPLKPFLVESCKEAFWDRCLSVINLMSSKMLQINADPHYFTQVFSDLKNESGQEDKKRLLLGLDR

[4] = target: Proto-oncogene tyrosine-protein kinase Src (Homo sapiens) (UniProt P12931); experiment: Residual activity of SRC at 10 uM by microplate scintillation counting
Proto-oncogene tyrosine-protein kinase Src (Homo sapiens), sequence (P12931 2-536 limits assumed): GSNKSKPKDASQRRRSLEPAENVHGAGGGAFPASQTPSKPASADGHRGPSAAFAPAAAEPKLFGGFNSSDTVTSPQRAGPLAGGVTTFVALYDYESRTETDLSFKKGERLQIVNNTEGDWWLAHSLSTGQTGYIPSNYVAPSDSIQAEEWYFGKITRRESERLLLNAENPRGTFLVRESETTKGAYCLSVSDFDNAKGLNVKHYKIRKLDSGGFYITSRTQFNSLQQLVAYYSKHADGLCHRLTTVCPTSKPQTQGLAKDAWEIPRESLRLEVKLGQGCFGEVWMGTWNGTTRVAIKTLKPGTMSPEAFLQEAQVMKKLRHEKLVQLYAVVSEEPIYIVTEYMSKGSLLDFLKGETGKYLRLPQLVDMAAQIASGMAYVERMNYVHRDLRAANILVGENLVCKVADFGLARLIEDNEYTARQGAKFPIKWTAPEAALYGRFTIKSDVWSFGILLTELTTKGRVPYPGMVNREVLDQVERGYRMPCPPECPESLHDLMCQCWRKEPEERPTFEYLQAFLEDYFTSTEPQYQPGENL

[5] = target: T2, Phosphorylase b kinase gamma catalytic chain, liver/testis isoform (Homo sapiens) (UniProt P15735); experiment: Residual activity of PHKG2 at 1 uM by microplate scintillation counting
T2 sequence (whole entry): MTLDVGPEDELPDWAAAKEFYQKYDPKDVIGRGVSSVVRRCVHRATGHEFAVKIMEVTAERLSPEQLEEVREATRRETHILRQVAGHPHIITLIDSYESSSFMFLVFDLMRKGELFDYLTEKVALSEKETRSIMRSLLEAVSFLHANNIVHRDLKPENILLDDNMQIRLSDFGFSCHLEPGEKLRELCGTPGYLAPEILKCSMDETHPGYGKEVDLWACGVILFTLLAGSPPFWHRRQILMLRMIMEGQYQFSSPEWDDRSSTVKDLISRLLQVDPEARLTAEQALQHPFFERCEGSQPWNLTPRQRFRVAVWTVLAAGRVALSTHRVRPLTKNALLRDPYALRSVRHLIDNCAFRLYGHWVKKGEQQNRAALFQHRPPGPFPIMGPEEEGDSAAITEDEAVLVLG

[6] = target: T3, Serine/threonine-protein kinase Nek11 (Homo sapiens) (UniProt Q8NG66); experiment: Residual activity of NEK11 at 0.1 uM by microplate scintillation counting
T3 sequence (whole entry): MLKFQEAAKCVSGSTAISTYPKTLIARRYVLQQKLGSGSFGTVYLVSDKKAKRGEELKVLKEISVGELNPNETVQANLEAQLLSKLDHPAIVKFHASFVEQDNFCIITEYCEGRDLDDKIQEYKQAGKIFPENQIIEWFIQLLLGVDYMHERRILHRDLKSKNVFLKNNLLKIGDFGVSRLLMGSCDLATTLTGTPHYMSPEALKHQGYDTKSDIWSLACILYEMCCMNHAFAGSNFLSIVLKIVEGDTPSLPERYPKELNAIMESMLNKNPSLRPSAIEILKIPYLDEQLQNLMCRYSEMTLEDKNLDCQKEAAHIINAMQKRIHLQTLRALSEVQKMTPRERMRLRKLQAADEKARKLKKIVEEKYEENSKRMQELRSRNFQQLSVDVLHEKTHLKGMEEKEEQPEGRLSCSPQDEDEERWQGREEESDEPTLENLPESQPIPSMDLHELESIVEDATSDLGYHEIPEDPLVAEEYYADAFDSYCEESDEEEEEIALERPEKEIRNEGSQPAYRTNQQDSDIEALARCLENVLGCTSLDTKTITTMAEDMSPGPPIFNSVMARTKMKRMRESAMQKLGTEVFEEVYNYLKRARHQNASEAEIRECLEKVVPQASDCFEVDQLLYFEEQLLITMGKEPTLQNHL

[7] = target: Tyrosine-protein kinase Fes/Fps (Homo sapiens) (UniProt P07332); experiment: Residual activity of FES at 0.1 uM by microplate scintillation counting
Tyrosine-protein kinase Fes/Fps (Homo sapiens), sequence (P07332 whole entry): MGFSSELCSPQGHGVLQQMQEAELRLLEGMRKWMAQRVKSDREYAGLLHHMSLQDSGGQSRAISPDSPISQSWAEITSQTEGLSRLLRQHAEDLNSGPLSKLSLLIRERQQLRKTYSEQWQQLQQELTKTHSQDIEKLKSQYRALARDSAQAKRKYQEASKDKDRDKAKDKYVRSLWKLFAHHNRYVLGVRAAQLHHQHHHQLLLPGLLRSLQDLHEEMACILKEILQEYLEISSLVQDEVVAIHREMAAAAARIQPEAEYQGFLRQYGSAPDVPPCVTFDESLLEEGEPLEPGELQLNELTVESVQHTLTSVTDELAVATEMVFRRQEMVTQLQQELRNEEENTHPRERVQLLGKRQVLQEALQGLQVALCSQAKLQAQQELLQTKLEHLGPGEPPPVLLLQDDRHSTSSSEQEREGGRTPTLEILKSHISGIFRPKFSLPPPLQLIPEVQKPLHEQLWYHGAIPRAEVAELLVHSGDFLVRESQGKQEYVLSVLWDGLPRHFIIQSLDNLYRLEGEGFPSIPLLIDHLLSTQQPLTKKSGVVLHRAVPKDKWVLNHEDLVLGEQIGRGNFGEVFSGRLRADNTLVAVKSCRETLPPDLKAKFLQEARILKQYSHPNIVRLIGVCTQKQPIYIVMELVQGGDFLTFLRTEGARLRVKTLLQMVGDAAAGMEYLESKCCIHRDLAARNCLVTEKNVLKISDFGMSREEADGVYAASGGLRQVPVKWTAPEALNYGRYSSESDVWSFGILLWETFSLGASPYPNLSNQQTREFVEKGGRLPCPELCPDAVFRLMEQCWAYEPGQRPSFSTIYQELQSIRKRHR

[8] = target: Rho-associated protein kinase 2 (Homo sapiens) (UniProt O75116); experiment: Residual activity of ROCK2 at 0.1 uM by microplate scintillation counting
Rho-associated protein kinase 2 (Homo sapiens), sequence (O75116 whole entry, looked up): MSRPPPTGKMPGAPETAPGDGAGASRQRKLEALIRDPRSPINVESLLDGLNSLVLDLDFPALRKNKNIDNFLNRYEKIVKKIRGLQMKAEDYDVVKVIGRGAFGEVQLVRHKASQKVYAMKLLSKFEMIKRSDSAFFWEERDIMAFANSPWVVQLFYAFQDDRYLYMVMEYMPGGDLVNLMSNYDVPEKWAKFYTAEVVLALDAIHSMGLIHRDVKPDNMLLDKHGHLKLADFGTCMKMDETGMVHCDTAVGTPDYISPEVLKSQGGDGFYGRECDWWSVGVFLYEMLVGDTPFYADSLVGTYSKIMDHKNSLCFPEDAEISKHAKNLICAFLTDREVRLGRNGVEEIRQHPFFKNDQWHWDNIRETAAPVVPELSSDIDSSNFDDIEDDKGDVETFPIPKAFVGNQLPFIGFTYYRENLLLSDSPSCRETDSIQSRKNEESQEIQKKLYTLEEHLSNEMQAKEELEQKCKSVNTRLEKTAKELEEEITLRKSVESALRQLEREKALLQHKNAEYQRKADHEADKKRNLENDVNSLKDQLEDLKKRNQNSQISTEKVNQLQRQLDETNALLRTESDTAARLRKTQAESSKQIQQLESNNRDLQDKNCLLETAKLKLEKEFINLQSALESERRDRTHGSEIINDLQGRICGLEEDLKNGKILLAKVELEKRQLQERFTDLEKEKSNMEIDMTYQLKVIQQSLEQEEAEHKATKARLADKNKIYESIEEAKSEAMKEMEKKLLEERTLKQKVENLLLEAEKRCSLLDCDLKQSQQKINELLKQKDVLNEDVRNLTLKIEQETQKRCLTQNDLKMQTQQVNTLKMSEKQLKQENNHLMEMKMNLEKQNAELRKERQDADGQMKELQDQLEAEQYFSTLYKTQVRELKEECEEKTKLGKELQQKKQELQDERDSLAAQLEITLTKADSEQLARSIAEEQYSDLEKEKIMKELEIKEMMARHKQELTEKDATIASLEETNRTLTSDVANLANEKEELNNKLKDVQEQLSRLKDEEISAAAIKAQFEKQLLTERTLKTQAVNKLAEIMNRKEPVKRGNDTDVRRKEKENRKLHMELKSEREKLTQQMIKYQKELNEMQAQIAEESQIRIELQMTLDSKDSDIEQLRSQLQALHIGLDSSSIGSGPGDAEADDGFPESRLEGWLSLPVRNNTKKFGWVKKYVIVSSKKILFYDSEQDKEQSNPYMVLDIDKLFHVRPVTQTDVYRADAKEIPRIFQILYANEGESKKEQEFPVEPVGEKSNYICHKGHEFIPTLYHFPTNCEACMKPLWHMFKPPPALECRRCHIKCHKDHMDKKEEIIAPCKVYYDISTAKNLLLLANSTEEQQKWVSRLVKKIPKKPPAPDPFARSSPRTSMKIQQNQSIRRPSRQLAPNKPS

SMILES	residual activity [1]	residual activity [2]	residual activity [3]	residual activity [4]	residual activity [5]	residual activity [6]	residual activity [7]	residual activity [8]
COc1cc2c(Oc3ccc(-c4nc5ccccc5s4)cc3F)ncnc2cc1OCCCN1CCN(C)CC1	101%	94%	89%	45%	72%	94%	101%	82%
COc1cc2c(Oc3ccc(-c4nc5ccccc5s4)cc3)ncnc2cc1OCCCN1CCCC1	98%	85%	87%	83%	80%	103%	107%	119%
COc1cc2c(Oc3ccc(-c4nc5ccccc5s4)cc3)ncnc2cc1OCCCN1CCN(C)CC1	100%	85%	82%	75%	96%	95%	102%	98%
